Experimental data reported in the supplement of paper PMC10307832.

Columns and labels:
Experiment in all cases: relative viability (nuclei count vs DMSO), 5 days (fraction); higher = more cells survive
Nelarabine + Luminespib = compound: COc1nc(N)nc2c1ncn2[C@@H]1O[C@H](CO)[C@@H](O)[C@@H]1O [Nelarabine] + CCNC(=O)c1noc(-c2cc(C(C)C)c(O)cc2O)c1-c1ccc(CN2CCOCC2)cc1 [Luminespib] (partner 0.01 µM)
Summary of the method: (§1)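 Lung cancer cell lines were seeded in 1536-well plates and dosed by pin tool the next day, with either a single drug or a fixed anchor-drug dose combined with five library-drug doses (not always all listed) spaced in √10 steps. Five days later, one step fixed the cells and stained their nuclei (final 0.05% Triton X-100, 1% formaldehyde, 1 ug/ml Hoechst), and nuclei were counted on 4× images. Relative viability is the nuclei count in treated wells divided by the count in vehicle wells, and each value is the median of duplicate plates.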

Nelarabine + Palbociclib = compound: COc1nc(N)nc2c1ncn2[C@@H]1O[C@H](CO)[C@@H](O)[C@@H]1O [Nelarabine] + CC(=O)c1c(C)c2cnc(Nc3ccc(N4CCNCC4)cn3)nc2n(C2CCCC2)c1=O [Palbociclib] (partner 0.5 µM)
Summary of the method: as §1

Nelarabine + Phenformin = compound: COc1nc(N)nc2c1ncn2[C@@H]1O[C@H](CO)[C@@H](O)[C@@H]1O [Nelarabine] + N=C(N)NC(=N)NCCc1ccccc1 [Phenformin] (partner 250 µM)
Summary of the method: as §1

Adavosertib + Lapatinib = compound: C=CCn1c(=O)c2cnc(Nc3ccc(N4CCN(C)CC4)cc3)nc2n1-c1cccc(C(C)(C)O)n1 [Adavosertib] + CS(=O)(=O)CCNCc1ccc(-c2ccc3ncnc(Nc4ccc(OCc5cccc(F)c5)c(Cl)c4)c3c2)o1 [Lapatinib] (partner 2 µM)
Summary of the method: as §1

| Cell Line | relative viability (Nelarabine + Luminespib; first compound 0.01 µM) | relative viability (Nelarabine + Luminespib; first compound 0.03162 µM) | relative viability (Nelarabine + Luminespib; first compound 0.1 µM) | relative viability (Nelarabine + Luminespib; first compound 0.3162 µM) | relative viability (Nelarabine + Luminespib; first compound 1 µM) | relative viability (Nelarabine + Palbociclib; first compound 0.01 µM) | relative viability (Nelarabine + Palbociclib; first compound 0.03162 µM) | relative viability (Nelarabine + Palbociclib; first compound 0.1 µM) | relative viability (Nelarabine + Palbociclib; first compound 0.3162 µM) | relative viability (Nelarabine + Palbociclib; first compound 1 µM) | relative viability (Nelarabine + Phenformin; first compound 0.01 µM) | relative viability (Nelarabine + Phenformin; first compound 0.03162 µM) | relative viability (Nelarabine + Phenformin; first compound 0.1 µM) | relative viability (Nelarabine + Phenformin; first compound 0.3162 µM) | relative viability (Nelarabine + Phenformin; first compound 1 µM) | relative viability (Adavosertib + Lapatinib; first compound 0.01 µM) | relative viability (Adavosertib + Lapatinib; first compound 0.03162 µM) | relative viability (Adavosertib + Lapatinib; first compound 0.1 µM) | relative viability (Adavosertib + Lapatinib; first compound 0.3162 µM) |
| --- | --- | --- | --- | --- | --- | --- | --- | --- | --- | --- | --- | --- | --- | --- | --- | --- | --- | --- | --- |
| SK-MES-1 | 0.954 | 0.622 | 0.748 | 0.847 | 0.797 | 0.3 | 0.327 | 0.305 | 0.316 | 0.354 | 0.705 | 0.658 | 0.643 | 0.757 | 0.684 | 0.45 | 0.43 | 0.476 | 0.389 |
| NCI-H2170 | 1.17 | 1.21 | 0.602 | 0.746 | 0.465 | 0.438 | 0.337 | 0.385 | 0.395 | 0.405 | 0.393 | 0.39 | 0.388 | 0.421 | 0.383 | 0.273 | 0.27 | 0.277 | 0.287 |
| NCI-H1648 | – | – | – | – | – | – | 0.27 | – | 0.292 | 0.215 | – | – | – | – | – | – | – | – | – |
| UMC-11 | 1.24 | 0.961 | 1.03 | 0.973 | 0.893 | 0.361 | 0.269 | 0.318 | 0.332 | 0.351 | 0.33 | 0.325 | 0.347 | 0.294 | 0.31 | 0.939 | 0.999 | 0.851 | 1.28 |
| HCC-15 | 0.304 | 0.158 | 0.349 | 0.295 | 0.409 | 0.847 | 0.695 | 0.788 | 0.837 | 0.677 | 0.582 | 0.443 | 0.426 | 0.51 | 0.498 | 0.902 | 0.87 | 0.934 | 0.955 |
| HCC-78 | – | – | – | – | – | 0.433 | 0.41 | – | 0.484 | 0.46 | 0.709 | 0.684 | – | 0.709 | 0.701 | 0.509 | 0.972 | 0.782 | 0.868 |
| NCI-H647 | 0.177 | 0.111 | 0.193 | 0.128 | 0.136 | 0.423 | 0.396 | 0.501 | 0.457 | 0.458 | 0.641 | 0.301 | 0.631 | 0.501 | 0.427 | 1.23 | 1.08 | 1.08 | 0.727 |
| NCI-H2009 | 1.16 | 1.05 | 1.02 | 1.07 | 1.05 | 0.194 | 0.206 | 0.203 | 0.161 | 0.192 | 0.555 | 0.518 | 0.479 | 0.532 | 0.47 | 0.975 | 0.99 | 1.05 | 0.926 |
| NCI-H520 | 0.252 | 0.249 | 0.184 | 0.27 | 0.218 | 0.215 | 0.186 | 0.236 | 0.261 | 0.168 | 0.811 | 0.343 | 0.638 | 0.806 | 0.513 | 0.923 | 0.822 | 0.802 | 0.858 |
| RERF-LC-KJ | 1.41 | 1.31 | 1.34 | 1.27 | 1.31 | 1.13 | 1.17 | 1.09 | 1.17 | 0.97 | 0.436 | 0.427 | 0.403 | 0.403 | 0.425 | 0.915 | 0.826 | 0.89 | 0.825 |
| NCI-H441 | 0.306 | 0.372 | 0.286 | 0.294 | 0.268 | 0.194 | 0.188 | 0.202 | 0.192 | 0.192 | 0.862 | 0.93 | 0.666 | 0.898 | 0.883 | – | – | – | – |
| NCI-H1666 | 0.991 | 0.962 | 0.898 | 1 | 1 | 0.607 | 0.648 | 0.677 | 0.661 | 0.59 | 0.576 | 0.607 | 0.569 | 0.536 | 0.606 | 0.618 | 0.667 | 0.65 | 0.575 |
| NCI-H1755 | 0.463 | 0.456 | 0.755 | 0.539 | 0.56 | 0.462 | 0.464 | 0.462 | 0.463 | 0.453 | 0.63 | 0.548 | 0.547 | 0.659 | 0.619 | 1.12 | 1.02 | 1.04 | 1.09 |
| COR-L23 | 0.973 | 0.796 | 0.576 | 0.906 | 0.869 | 0.4 | 0.243 | 0.26 | 0.267 | 0.282 | 0.525 | 0.385 | 0.356 | 0.416 | 0.448 | 1.06 | 1.09 | 0.769 | 0.415 |
| SK-LU-1 | 0.225 | 0.154 | 0.215 | 0.199 | 0.223 | 0.456 | 0.276 | 0.352 | 0.376 | 0.377 | 0.564 | 0.364 | 0.553 | 0.679 | 0.499 | 0.857 | 0.834 | 0.787 | 0.281 |
